Experimental data: patent publication US4525475A, “Prevention of thrombolic disorder with imidazole derivatives and salts thereof” (priority 1979, dated 1985)
pIC50: −log10 of the molar value. Like-named read-outs stand apart in the source and are kept apart here.

Key:
TXA2 synthetase = target: T1, TXA2 synthetase (Equus caballus, UniProt A0A9L0T8T9); assay: Inhibition of TXA2 synthetase: thromboxane (thromboxane B2) produced from labelled arachidonic acid by homogenised horse platelets; format: biochemical; details: horse platelet homogenate, 100 mM Tris buffer pH 7.4, 5 min preincubation at ambient temperature, 3 min at 37° C. with arachidonic acid; for IC50: read-out: ED50 (concentration of active compound to reduce the enzyme activity by 50%) (converted)
T1 construct: labelled arachidonic acid as substrate, thromboxane B2 measured by TLC
T1 sequence (A0A9L0T8T9 2-534): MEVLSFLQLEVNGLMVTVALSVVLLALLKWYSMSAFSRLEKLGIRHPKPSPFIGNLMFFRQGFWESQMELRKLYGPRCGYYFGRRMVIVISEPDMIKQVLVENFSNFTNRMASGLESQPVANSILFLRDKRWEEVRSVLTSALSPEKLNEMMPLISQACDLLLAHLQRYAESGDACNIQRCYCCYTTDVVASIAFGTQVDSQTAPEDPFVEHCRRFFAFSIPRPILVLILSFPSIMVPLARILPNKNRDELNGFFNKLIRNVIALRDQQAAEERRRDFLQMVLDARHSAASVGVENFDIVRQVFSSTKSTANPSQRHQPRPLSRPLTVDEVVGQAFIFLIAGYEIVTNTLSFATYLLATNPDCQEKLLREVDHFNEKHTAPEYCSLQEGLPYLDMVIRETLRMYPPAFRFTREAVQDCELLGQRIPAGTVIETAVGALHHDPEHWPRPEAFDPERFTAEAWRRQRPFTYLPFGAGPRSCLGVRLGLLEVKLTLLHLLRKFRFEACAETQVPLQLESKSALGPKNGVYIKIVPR
Method: (§1) Horse platelets were prepared from whole horse blood by differential centrifugation. Approximately 10^6 platelets were homogenised in 1 ml 100 mM Tris buffer pH 7.4. Various concentrations of active compound were added and the reaction sets incubated for 5 minutes at ambient temperature. To each tube was added 20 nM of arachidonic acid containing 10^6 disintegrations per minute (DPM) of labelled arachidonic acid and the tubes incubated for 3 minutes at 37° C. in a shaking water bath. After incubation the radioactive products were extracted from the acidified aqueous phase with ethyl acetate and after concentration resolved by thin layer chromatography on silica gel with chloroform/methanol/acetic acid/water (90:8:1:0.8) as a developing solvent. The amount of thromboxane produced was measured by scraping the radioactive zone corresponding to thromboxane B2 and estimating the radioactivity in a liquid scintillation counter.
The concentration of active compound to reduce the enzyme activity by 50% (ED50) was established.

PGE, PGF and PGD = assay: Selectivity: amount of PGE, PGF and PGD produced, measured in a similar manner to the thromboxane test; format: biochemical, horse; design: key: 0: no selectivity; +: low selectivity; ++: medium selectivity; +++: high selectivity; ++++: exceptionally high selectivity; details: greater selectivity = more anti-aggregating prostaglandins produced
Method: as §1
The selectivity of the active compounds was measured in a similar manner to that described above and the amount of PGE, PGF and PGD produced was determined. The greater the selectivity, the more of the anti-aggregating prostaglandins are produced.
The ED50 and Selectivity results are shown in Table A in which 0 indicates no selectivity; +low selectivity; ++medium selectivity; +++high selectivity: ++++exceptionally high selectivity; ND not determined.

[1] = system: enzymic conversion of the endoperoxides (PGG2 and PGH2) to thromboxane A2 by platelet microsomes; details: Moncada et al., Prostaglandins, 13/4, 611-618, 1977; cited from earlier work
serum cholesterol = details: U.K. Pat. No. 1 364 312; Biochem. Pharmacol., 24, 1902-1903, 1975; cited from earlier work

| Compound | IC50 (TXA2 synthetase) [µM] | Selectivity (PGE, PGF and PGD) | pIC50 (TXA2 synthetase; read-out: ED50 (concentration of active compound to reduce the enzyme activity by 50%)) | inhibition of the enzymic conversion of the endoperoxides to thromboxane A2 [1] | lowering serum cholesterol levels (serum cholesterol) |
| --- | --- | --- | --- | --- | --- |
| CC1(C)C2CCC(Cn3ccnc3)C1C2 (centres unmarked) [Example 8, 1-(6,6-Dimethylbicyclo[3.1.1]heptan-2-ylmethyl)imidazole] | 24.5 | +++ |  |  |  |
| C1=CC2CC1CC2CC(C1CC2C=CC1C2)n1ccnc1 (centres unmarked) [Example 13, 1-{1,2-[Bis-(bicyclo[2.2.1]hept-5-en-2-yl)]ethyl}imidazole] | 89.2 | ++ |  |  |  |
| c1cn(CC2CC3CCC2C3)cn1 (centres unmarked) [Example 4, 1-(Bicyclo[2.2.1]heptan-2-ylmethyl)imidazole] | 28.4 | +++ |  |  |  |
| CC1(C)C(=CCn2ccnc2)C2CCC1C2 (centres unmarked) [15 (b), 1-[2-(3,3-Dimethylbicyclo[2.2.1]heptan-2-ylidene)ethyl]imidazole] | < 69.3 |  |  |  |  |
| c1c[nH]cn1 [Imidazole] |  |  | ≤ 2.13 | some degree of inhibition |  |
| Cn1ccnc1 [1-Methylimidazole, reference compound] | ≥ 2440 | ++ |  | some degree of inhibition |  |
| C1=CC2CC1CC2Cn1ccnc1 (centres unmarked) [Example 3, 1-(Bicyclo[2.2.1]hept-5-en-2-ylmethyl)imidazole] | 57.4 | +++ |  |  |  |
| c1cn(C2CC3CCC2C3)cn1 (centres unmarked) [Example 11, 1-(Bicyclo[2.2.1]heptan-2-yl)imidazole] | 290 |  |  |  |  |
| c1cn(CC2C3CC4C(C3)C24)cn1 (centres unmarked) [15 (c), 1-(Tricyclo[2.2.1.0^3,5]heptan-2-ylmethyl)imidazole] | < 57.4 | +++ |  |  |  |
| CCCCCCCCCCCCn1ccnc1 [1-n-dodecylimidazole] |  |  |  |  | capable of lowering serum cholesterol levels |
| CC1(C)C2CC=C(CCn3ccnc3)C1C2 (centres unmarked) [Example 2, 1-[2-(6,6-Dimethylbicyclo[3.1.1]hept-2-en-2-yl)ethyl]imidazole] | 16.2 | +++ |  |  |  |
| CC1(C)C2CC=C(Cn3ccnc3)C1C2 (centres unmarked) [Example 7, 1-(6,6-Dimethylbicyclo[3.1.1]hept-2-en-2-ylmethyl)imidazole] | 74.1 | +++ |  |  |  |
| c1cn(CC2CN3CCC2CC3)cn1 (centres unmarked) [Example 12, 1-(1-Azabicyclo[2.2.2]octan-3-ylmethyl)imidazole] | 157 | ++ |  |  |  |
| CC1(C)C2CCC(CCn3ccnc3)C1C2 (centres unmarked) [Example 1, 1-[2-(6,6-dimethylbicyclo[3.1.1]heptan-2-yl)ethyl]imidazole] | 19.7 | +++ |  |  |  |
| c1cn(CCC23CC4CC(CC(C4)C2)C3)cn1 [Example 9, 1-[2-(Adamantan-1-yl)ethyl]imidazole] | 65.1 | ++++ |  |  |  |
| c1cn(CC2COC3(CCCCC3)O2)cn1 (centres unmarked) [Example 10, 1-(1,4-Dioxaspiro[4.5]decan-2-ylmethyl)imidazole] | > 225 |  |  |  |  |
